Reference: patent US9498533B2, “Drug delivery compositions and methods” (Board of Regents of the University of Nebraska, priority 2011, dated 2016)

Tests used:
[1] = tested on: breast cancer cells that overexpress HER2; experiment: HER2 expression and Akt activation in breast cancer cells; format: cell-based
[2] = tested on: MCF-7 human breast cancer cells; experiment: In vitro cytotoxicity, MTT assay; format: cell-based; details: n = 4
Experimental: Cytotoxicity of DOX-loaded cl-micelles was assessed in MCF-7 cells by a standard MTT assay as described (Kim et al. (2009) J. Control Release, 138:197-204). Briefly, cells were seeded in a 96-well microtiter plates with 5,000 cells per well and allowed to adhere for 24 hours prior to the assay. Cells were exposed to various doses (0-50 μg/ml on DOX basis) of DOX alone, polymer micelles alone, and DOX-loaded cl-micelles for 24 hours at 37° C., followed by washing with PBS, and maintaining in DMEM medium with 10% FBS for additional 72 hours. 25 μl of MTT indicator dye (5 mg/ml) was added to each well and the cells were incubated for 2 hours at 37° C. in the dark. 100 μl of 50% DMF-20% SDS solution was added to each well and kept overnight at 37° C. Absorption was measured at 570 nm in a microplate reader (SpectraMax® M5, Molecular Devices Co., USA) using wells without cells as blanks. […]

[3] = carboxylic groups; cited from earlier work

C=CCNC1=C2C[C@@H](C)C[C@H](OC)[C@H](O)[C@@H](C)/C=C(\C)[C@H](OC(N)=O)[C@@H](OC)/C=C\C=C(/C)C(=O)NC(=CC1=O)C2=O [17-AAG, 17-N-allylamino-17-demethoxygeldanamycin]
Akt activation [1]: inhibited Ala activation
HER2 expression [1]: downregulation of HER2 expression

COc1cccc2c1C(=O)c1c(O)c3c(c(O)c1C2=O)C[C@@](O)(C(=O)CO)C[C@@H]3O[C@H]1C[C@H](N)[C@H](O)[C@H](C)O1.Cl [Free DOX, Doxorubicin hydrochloride]
IC50 (DOX equivalents) ([2]; MCF-7, 6 hours incubation): 0.283 ± 0.049 µg/mL
IC50 (DOX equivalents) ([2]; MCF-7, 24 hours incubation): 0.046 ± 0.021 µg/mL

N[C@@H](CCC(=O)O)C(=O)O [glutamic acid]
pKa [3]: ca. 4.4
